From patent US9931355B2, “Combination of compounds derived from gallic acid for the treatment of cancer” (PONTIFICLA UNIVERSIDAD JAVERIANA, priority 2012, dated 2018) come the findings set out here.

In brackets after ≈: the same amount, converted by molar mass.

Holding throughout (format): cell-based
In assay [1] the test system is 4T1 (murine mammary cancer). The assay can be described thus: MTT cytotoxicity assay on 4T1 cells. The settings on record: Mus musculus, 48 hours, read-out: 50% inhibitory concentration. The method, then: (§1) The human cell lines used were K562 (human erythroleukemia) MCF7 (human breast cancer) and A375 (human melanoma). The murine cell lines used were Mel Rel (murine melanoma) and 4T1 (murine mammary cancer). […] The cell line 4T1 was also maintained with 1 mM of sodium pyruvate (Eurobio, Toulouse, FR). For the assays on normal cells, human mononucleocytes from the venous peripheral blood of healthy donors (PBMC) were obtained, and were separated by centrifugation using a Ficoll-Hypaque density gradient (GE Healthcare Bio-Sciences AB, Bjorkgatan, Uppsala, Sweden). The cytotoxic effect of the combination of the invention on tumor cells and normal cells was evaluated by direct microscopic observation and via assays with MTT (Sigma, Saint Louis Mo., USA). […] The formazan crystals were dissolved with dimethyl sulfoxide (DMSO) and the optical density was measured at 540 nm in a Multiskan MCC/340 machine (Labsystems, Thermo Fisher Scientific, Waltham, USA). The cytotoxic effect of FA-CS was evaluated with MTT on various tumoral cell lines. The […] value on the various cell lines was calculated using the Minitab software. […]

Assay [2] concerns K562 (human erythroleukemia). The assay can be described thus: MTT cytotoxicity assay on K562 cells. The settings on record: 48 hours, read-out: 50% inhibitory concentration. The method, then:
as §1

In a further assay the test system is A375 (human melanoma). The assay can be described thus: MTT cytotoxicity assay on A375 cells. As to conditions: A-375, 48 hours, read-out: 50% inhibitory concentration. The method, then: The human cell lines used were K562 (human erythroleukemia) MCF7 (human breast cancer) and A375 (human melanoma). The murine cell lines used were Mel Rel (murine melanoma) and 4T1 (murine mammary cancer). These cells were maintained in RPMI 1640 medium supplemented with 10% fetal calf serum, 2 mM of L-glutamine, 100 U of penicillin, 100 μg/ml of streptomycin and 0.01 M of HEPES (Eurobio, Toulouse, FR) at 37° C. with 5% CO2 under a humid atmosphere. The cell line 4T1 was also maintained with 1 mM of sodium pyruvate (Eurobio, Toulouse, FR). For the assays on normal cells, human mononucleocytes from the venous peripheral blood of healthy donors (PBMC) were obtained, and were separated by centrifugation using a Ficoll-Hypaque density gradient (GE Healthcare Bio-Sciences AB, Bjorkgatan, Uppsala, Sweden).
The cytotoxic effect of the combination of the invention on tumor cells and normal cells was evaluated by direct microscopic observation and via assays with MTT (Sigma, Saint Louis Mo., USA). […] The formazan crystals were dissolved with dimethyl sulfoxide (DMSO) and the optical density was measured at 540 nm in a Multiskan MCC/340 machine (Labsystems, Thermo Fisher Scientific, Waltham, USA).
The cytotoxic effect of FA-CS was evaluated with MTT on various tumoral cell lines. The […] value on the various cell lines was calculated using the Minitab software. […]
On the technique in general: Tetrazolium dyes change colour on reduction, which living cells bring about.

In the next assay the test system is Fibroblasts. The assay can be described thus: MTT cytotoxicity assay on fibroblasts. As to conditions: Fibroblast, read-out: 50% inhibitory concentration.
For assay [3], the system named is MCF7 (human breast cancer). The assay can be described thus: MTT cytotoxicity assay on MCF7 cells. The settings on record: 48 hours, read-out: 50% inhibitory concentration. The method, then:
as §1

`COc1cccc2c1C(=O)c1c(O)c3c(c(O)c1C2=O)C[C@@](O)(C(=O)CO)C[C@@H]3O[C@H]1C[C@H](N)[C@H](O)[C@H](C)O1` [Doxorubicin]: the IC50 is 0.5 ± 0.1 µg/mL in assay [1], 0.2 ± 0.1 µg/mL in assay [2], 0.02 ± 0.1 µg/mL in the assay with A375 (human melanoma) and 0.4 ± 0.1 µg/mL (≈ 0.736 µM) with Fibroblasts.

Regarding `O=C(O)c1cc(O)c(O)c(O)c1` [Gallic acid], the IC50 in assay [1] is 96.2 µg/mL; in assay [3], 4.07 ± 0.04 µg/mL; in assay [2], 18.2 ± 0.1 µg/mL.
